Laboratory results published in article PMC3519527, “Compounds from Sorindeia juglandifolia (Anacardiaceae) exhibit potent anti-plasmodial activities in vitro and in vivo” (Malaria Journal, 2012).
Where “and” joins values, the source holds several entries; their conditions need not be identical. Identical values can stand only once. Counter-ions that a name gives are not always drawn. Like-named read-outs stand apart in the source and are kept apart here.

Key:
[1] = test system: Plasmodium berghei strain B; assay: In vivo suppressive test in mice; design: species or system Plasmodium berghei in Swiss albino mice; conditions: for SD50 (suppressive dose at 50%): oral, parasitaemia 24 h after last dose
Protocol: (§1) Compound 1 (2,3,6-trihydroxy benzoic acid), obtained from the fractionation of S.juglandifolia extract, was assessed in vivo using the Plasmodium berghei rodent parasite model, according to the procedure described by Okokon et al.[12] with a few modifications. Plasmodium berghei strain B (MRA-406, MR4, ATCC® Manassas Virginia) was obtained from BEI Resources and used for the experiments. Female Swiss albino mice aged eight weeks and weighing ~20 g were used for efficacy and toxicity experiments. These animals were bred in the animal house of the Faculty of Medicine, University of Yaoundé I. They were fed a standard laboratory diet (S.P.C. Ltd., Bafoussam, Cameroon) and given clean tap water ad libitum. Animal welfare requirements were strictly considered during the experiments, as described in the protocol approved by the National Ethics Committee (Reg. No.FWAIRB00001954). To start infections, a cryotube of parasites was thawed and the undiluted contents were injected immediately i.p. into naïve recipient mice. Three days after infection, the parasitaemia was evaluated daily in tail vein blood through Giemsa-stained thin smear observation under oil immersion at 100X magnification. Passage of infection into new mice consisted of an i.p. injection of 200 μL of 10^6 infected erythrocytes/mL sterile PBS. The test compound was dissolved and diluted in Tween 20: Ethanol (7:3 v/v).
Preliminary screening of the compound consisted of a suppressive test. To achieve this, animals were infected i.p. with 200 μL of 10^6 infected erythrocytes/mL sterile PBS. Four hours after infection, duplicate batches of animals were treated as follows: four batches of six mice each were given test drug orally at respective dosages of 10, 30, 50 and 100 mg/kg, and subsequently once daily for four consecutive days. Negative controls consisted of one batch of 6 infected mice receiving no drug (dose 0), and one batch of six uninfected animals. Positive controls consisted of one batch of infected mice receiving quinine sulfate at 24 mg/kg.
(§2) Curative assays were subsequently conducted using the same setting, with animal receiving drug at daily oral dosages of 10, 30, 50 and 100 mg/kg for 5 consecutive days, starting day 3 (72 hours) after infection. Thin blood smears were made daily from the tail blood of mice and the level of parasitaemia assessed by examination of Giemsa-stained smears using a microscope at 100X magnification.

[2] = test system: Plasmodium berghei strain B; assay: In vivo curative test in mice; design: species or system Plasmodium berghei in Swiss albino mice
Protocol: as §1, §2

[3] = test system: Plasmodium falciparum chloroquine-resistant strain W2; assay: In vitro screening against Plasmodium falciparum W2 (flow cytometry, 48 h); type: cell-based; conditions: read-out: P. falciparum W2 IC50±SD
Protocol: Plasmodium falciparum strain W2, known to be resistant to chloroquine and other anti-malarials, was cultured in sealed flasks at 37°C, in a 3% O2, […] and 91% N2 atmosphere in RPMI 1640, 25 mM HEPES, pH 7.4, supplemented with heat inactivated 10% human serum and human erythrocytes to achieve a 2% haematocrit. Serum and erythrocytes were purified from blood voluntarily given by adults with no recent contact with malaria, and who have signed an informed consent form. Parasites were synchronized in the ring stage by serial treatment with 5% sorbitol (Sigma) and tested at 1% parasitaemia. Stock solutions of plant extracts were prepared as 1 mg/ml in DMSO, diluted as needed for individual experiments, and tested in triplicate as described previously. The stock solutions were diluted in supplemented RPMI 1640 medium so as to have at most 0.2% DMSO in the final reaction medium. Equal volumes (100μl) of inhibitors and 1% parasitaemia, 4% haematocrit culture were then added and gently mixed thoroughly. Negative controls contained equal concentrations of DMSO. Positive controls contained 1 μM chloroquine phosphate (Sigma). Cultures were incubated at 37°C for 48 h. Parasites at the ring stage were thereafter fixed by replacing the serum medium by an equal volume of 1% formaldehyde in PBS. Aliquots (5 μl) of each culture were then added to round-bottom polystyrene 96 well plates containing 150 μl of 100 mM NH4Cl, 0.1% Triton X- 100 and 1 nM YOYO-1 nuclear dye (Molecular Probes) in PBS, and the parasitaemia of treated and control cultures were compared using a Becton-Dickinson FACSort flow cytometer equipped with AMS-1 loader (Cytek Development) to count nucleated (parasitized) erythrocytes. Data acquisition was performed using Cell Quest software.

recombinant falcipain-2 = biological target: T1, recombinant falcipain-2 (Plasmodium falciparum, UniProt Q8I6U4); assay: Falcipain-2 inhibition (Z-Leu-Arg-AMC hydrolysis); type: biochemical; conditions: recombinant enzyme, pH 5.5, triplicate; for IC50: read-out: Falcipain-2 IC50±SD
T1 construct: made in house
T1 sequence (Q8I6U4 244-484): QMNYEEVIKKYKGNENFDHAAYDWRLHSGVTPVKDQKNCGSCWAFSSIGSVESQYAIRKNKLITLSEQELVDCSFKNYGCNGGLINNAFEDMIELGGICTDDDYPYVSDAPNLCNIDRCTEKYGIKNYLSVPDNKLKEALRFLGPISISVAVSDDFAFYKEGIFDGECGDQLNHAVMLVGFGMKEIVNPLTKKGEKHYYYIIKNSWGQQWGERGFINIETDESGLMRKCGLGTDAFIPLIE
Protocol: Falcipain-2 activity was measured as hydrolysis of the fluorogenic substrate benzyloxycarbonyl-Leu-Arg-7-amino-4-methyl-coumarin (Z-Leu-Arg-AMC) using a Fluoroskan II spectrofluorometer, as described previously. For inhibitor assays, recombinant falcipain-2 prepared as described previously was incubated with inhibitors (added from stocks concentrated 100- to 1,000-fold in dimethyl sulfoxide [DMSO]) with 10 mM dithiothreitol, pH 5.5, for 30 min at room temperature before the substrate (50 μM) was added. Equal concentrations of enzyme were used for each experiment. Multiple inhibitor concentrations were studied in triplicate, and the rates of hydrolysis were determined and compared to those of controls containing equal concentrations of DMSO. All values were normalized to the control activity, and IC50s were calculated with the Prism 5.0 program, with data fitted by nonlinear regression.

[4] = test system: P. falciparum field isolates; assay: In vitro screening against Plasmodium falciparum field isolates (Giemsa smears, 48 h); type: cell-based
Protocol: Plasmodium falciparum isolates were prepared as described previously. Blood was collected from outpatients presenting at the Etoug-Ebe Baptist Health Centre in Yaoundé with uncomplicated malaria. Patients older than five years of age with mono infection with P. falciparum and parasite density greater than 6,000 asexual parasites per microliter of blood were considered for inclusion in the study. Those with recent history of self-medication with anti-malarial drugs were excluded. After patients agreed to participate in the study and signed the consent form, 5 mL of blood was collected from them by venipuncture into heparinized tubes. The blood was centrifuged at 3,000 rpm for 15 min and the supernatant discarded. The pellets were suspended in 10 mL of pre-warmed RPMI 1640 medium and centrifuged again twice at 3,000 rpm for 5 min, and the supernatant was then discarded. The volume of the packed-cells was estimated and mixed with an equal amount of RPMI 1640, 25 mM HEPES, pH 7.4, and subsequently used at 4% haematocrit for experiments. Thin smears were evaluated to assess the parasitaemia, the developmental stages of parasites, and the colour, shape and size of red blood cells. Nine such isolates were prepared and subsequently used for experiments.
The activity of plant products was assessed as previously described. […] Stock solutions of plant extracts were prepared at 1 mg/ml in DMSO and diluted as needed for individual experiments in 96-well plates using RPMI 1640, to achieve a maximum final DMSO concentration of 0.2%. Chloroquine was used as positive control at 1 μM, and the negative control was an equal concentration of DMSO. To assess the susceptibility of parasites to drugs, they were maintained in RPMI 1640 supplemented with 25 mM HEPES buffer (pH 7.4), 0.05% ampicillin, and 10% AB+ human serum at 37°C, in a candle jar. To achieve this, 200 μl parasite suspensions at 4% haematocrit and 0.1%– 0.3% parasitaemia were added to 50 μl of each concentration of inhibitor in individual wells, each tested in triplicate. Cultures were incubated at 37°C for 48 h in a candle jar. To estimate the effects of inhibitors after 48 h, thin smears from treated and control cultures were fixed in methanol for 30 s, stained using fresh 5% Giemsa solution (Sigma) in phosphate buffer (pH 7.1), and examined by counting the parasitaemia per 100 erythrocytes. IC50s were calculated from curves plotting percent growth versus drug concentration using Prism 5.0 software with data fitted by nonlinear regression to the variable slope sigmoidal dose–response formula y = 100/[1 + 10^(logIC50− x)H, where H is the Hill coefficient or slope factor [5].

[5] = Plasmodium falciparum, W2, 48 h, W2 strain, 48 h, triplicate
[6] = Plasmodium falciparum, isolate E01, read-out: IC50±SD
[7] = Plasmodium falciparum, isolate E02, read-out: IC50±SD
[8] = Plasmodium falciparum, isolate E03, read-out: IC50±SD
[9] = Plasmodium falciparum, isolate E04, read-out: IC50±SD
[10] = Plasmodium falciparum, isolate E05, read-out: IC50±SD
[11] = Plasmodium falciparum, isolate E06, read-out: IC50±SD
[12] = Plasmodium falciparum, isolate E07, read-out: IC50±SD
[13] = Plasmodium falciparum, isolate E08, read-out: IC50±SD
[14] = Plasmodium falciparum, isolate E09, read-out: IC50±SD

Compound: C=C[C@H]1C[N@@]2CC[C@H]1C[C@H]2[C@H](O)c1ccnc2ccc(OC)cc12 [Quinine sulfate, quinine sulfate, reference compound]
- Mean % Suppression/Inhibition ([1]; 24 mg/kg, positive control): 71.34%
- Mean % Suppression/Inhibition ([2]; 24 mg/kg, positive control): 89.50%

Compound: O=C(O)c1c(O)ccc(O)c1O [Compound 1, 2,3,6-trihydroxy benzoic acid]
- IC50 [3, 5]: 16.5 µM
- IC50 ([3]; W2 strain, 48 h, triplicate, listed as 2,3,6-trihydroxy benzoic acid (1)): 16.5 ± 0.47 µM
- IC50 (recombinant falcipain-2): 35.4 µM
- IC50 [4, 6]: 11.3 ± 0.92 µM
- IC50 [4, 7]: 17.1 ± 0.48 µM
- IC50 [4, 8]: 22 ± 0.93 µM
- IC50 [4, 9]: 24.8 ± 1.04 µM
- IC50 [4, 10]: 6.32 ± 0.16 µM
- IC50 [4, 11]: 36.1 ± 2.01 µM
- IC50 [4, 12]: 33.7 ± 0.61 µM
- IC50 [4, 13]: 9.92 ± 4.82 µM
- IC50 [4, 14]: 19.77 ± 0.14 µM
- IC50 ([4]; Plasmodium falciparum, span over the nine field isolates, read-out: IC50 against P. falciparum isolates): 6.3 µM
- IC50 ([4]; span over the nine field isolates, read-out: IC50 against P. falciparum isolates): 6.3 to 36.1 µM
- Mean % Suppression/Inhibition ([1]; 10 mg/kg oral, once daily, 24 h after last dose): 22.73%
- Mean % Suppression/Inhibition ([1]; 30 mg/kg oral, once daily, 24 h after last dose): 35.95%
- Mean % Suppression/Inhibition ([1]; 50 mg/kg oral, once daily, 24 h after last dose): 53.66%
- Mean % Suppression/Inhibition ([1]; 100 mg/kg oral, once daily, 24 h after last dose): 69.63%
- SD50 (suppressive dose at 50%) [1]: 44.9 mg/kg and 44.9 ± 1.6 mg/kg
- SD50 (suppressive dose at 50%) ([1]; listed as 2,3,6-trihydroxy benzoic acid (1)): ^cSD50 = 44.9 ± 1.6 mg/kg
- Mean % Suppression/Inhibition ([2]; 10 mg/kg oral daily for 5 days from day 3): 20.95%
- Mean % Suppression/Inhibition ([2]; 30 mg/kg oral daily for 5 days from day 3): 41.00%
- Mean % Suppression/Inhibition ([2]; 50 mg/kg oral daily for 5 days from day 3): 57.27%
- Mean % Suppression/Inhibition ([2]; 100 mg/kg oral daily for 5 days from day 3): 66.40%
- ED50 ([2]; Plasmodium berghei, oral, parasitaemia 24 h after last dose, read-out: ED50 (effective dose at 50%)): 42.2 mg/kg
- melting point: 188.5 to 190 °C

Compound: COC(=O)c1c(O)ccc(O)c1O [Compound 2, 2,3,6-trihydroxy methyl benzoate]
- IC50 [3, 5]: 13 µM
- IC50 ([3]; W2 strain, 48 h, triplicate, listed as 2,3,6-trihydroxy methyl benzoate (2)): 13 ± 1.63 µM
- IC50 (recombinant falcipain-2): 6.1 µM and 6.09 µM
- IC50 [4, 6]: 7.02 ± 0.07 µM
- IC50 [4, 7]: 14.7 ± 0.15 µM
- IC50 [4, 8]: 19.8 ± 0.38 µM
- IC50 [4, 9]: 18.8 ± 1.04 µM
- IC50 [4, 10]: 12.2 ± 0.02 µM
- IC50 [4, 11]: 23.1 ± 2.01 µM
- IC50 [4, 12]: 26.69 ± 0.02 µM
- IC50 [4, 13]: 13.3 ± 1.85 µM
- IC50 [4, 14]: 24.4 ± 0.05 µM

Compound: C[C@@H]1CC[C@H]2[C@@H](C)C(=O)O[C@@H]3O[C@@]4(C)CC[C@@H]1[C@]32OO4 [ART, artemisinin, reference compound]
- IC50 [3, 5]: 0.007 ± 0.01 µg/mL

Compound: CCN(CC)CCCC(C)Nc1ccnc2cc(Cl)ccc12 (centres unmarked) [CQ, chloroquine, reference compound]
- IC50 ([3]; Plasmodium falciparum, W2, 48 h): 0.05 ± 0.01 µg/mL
- IC50 ([4]; Plasmodium falciparum, read-out: IC50 against P. falciparum isolates, span over the nine field isolates): 0.0166 to 0.0384 µg/mL
- IC50 ([4]; Plasmodium falciparum, read-out: IC50±SD, isolate E01): 0.0254 ± 0.00347 µg/mL
- IC50 ([4]; Plasmodium falciparum, read-out: IC50±SD, isolate E02): 0.0233 ± 0.019 µg/mL
- IC50 ([4]; Plasmodium falciparum, read-out: IC50±SD, isolate E03): 0.0384 ± 0.00437 µg/mL
- IC50 ([4]; Plasmodium falciparum, read-out: IC50±SD, isolate E04): 0.0272 ± 0.00072 µg/mL
- IC50 ([4]; Plasmodium falciparum, read-out: IC50±SD, isolate E05): 0.0166 ± 0.00148 µg/mL
- IC50 ([4]; Plasmodium falciparum, read-out: IC50±SD, isolate E06): 0.0192 ± 0.00486 µg/mL
- IC50 ([4]; Plasmodium falciparum, read-out: IC50±SD, isolate E07): 0.0243 ± 0.00332 µg/mL
- IC50 ([4]; Plasmodium falciparum, read-out: IC50±SD, isolate E08): 0.0187 ± 0.00094 µg/mL
- IC50 ([4]; Plasmodium falciparum, read-out: IC50±SD, isolate E09): 0.0188 ± 0.00187 µg/mL

Compound: CC(C)C[C@H](NC(=O)[C@H]1O[C@@H]1C(=O)O)C(=O)NCCCCN=C(N)N [Compound E64, l-transepoxy-succinyl-leucylamido-(4-guanidino)-butane, reference compound]
- Falcipain-2 IC50±SD (recombinant falcipain-2): 0.049 ± 0.003 µg/mL
